Data on three compounds can be found in US20040229837A1, “Treatment of neurodegenerative diseases” (priority 2003, published 2004).

The subject of assay [1] is wild-type mice. Kind of assay: Choline/creatine levels after chronic CGS, wild-type mice. Format: in vivo. As to conditions: chronic IP-administration of CGS. As for the experimental part:
Animals were anesthetized using chloral hydrate (4.088 mg/10 g, i.p. injection). Measurements were performed on a Biospec 4.7 T spectrometer with an active shielding gradient at 6.9 G/cm in 500 us. Mice were placed in a prone position with a custom-designed head-holder. A 20-cm birdcage coil was used for RF excitation, and a 2-cm-diameter surface coil placed directly over the head was used for signal receiving. The volume of interest (VOI) for ^1H-MRS measurements over the striatum was selected on the basis of coronal diffusion-weighted image using a pulse gradient spin-echo diffusion method with a repetition time (TR) of 1500 ms, an echo time (TE) of 62 ms, a field of view of 3 cm×3 cm, a slice thickness of 1 mm, a b value of 1300 s/mm^2, number averages of 2, a 256 -128 matrix size zero filled to 256 -156. The diffusion-sensitive gradients were applied in the read (×) direction before and after the refocusing pulse. Point-resolved spectroscopy (PRESS) sequence, preceded by three consecutive chemical shift selective saturation (CHESS) pulses for water suppression, was used for localized spectroscopy with a 3.5 ×3.5 ×3.5 mm^3voxel located in the striatum region, a spectral width (sw) of 4000 Hz, a TR of 3.5 s, a TE of 136 ms, signal averages of 256, and total scanning time of 8 min 32 sec. The peak areas of NAA, choline (Cho), and creatine (Cr), were recognized. […]

Assay [2] has as its system wild-type mice. The experiment in a line: Number of activated astrocytes, wild-type mice. Format: in vivo. The note with it: chronic CGS treatment. As for the experimental part:
Single antigen immunohistochemistry was carried out by the avidin-biotin-peroxidase complex method as previously described (Liu et al. (1998) FEBS Lett. 436:92-98). In brief, free-floating sections were incubated in the polyclonal anti-GFAP antiserum (1 :1000 dilution, Sigma, St. Louis, Mo., USA) at 4° C. for 36-48 h followed by a biotinconjugated goat anti-rabbit IgG (1:500, Vector Laboratories, Burlingame, Calif., USA) for 2 h, and then with an avidin-biotin-peroxidase complex for 2 h with three rinses of 0.1 M PB in between. Sections were incubated in 0.1 M PB containing 0.02% DAB and 0.08% nickel ammonium sulfate. Immunostaining was developed by adding H2O2 to a final concentration of 0.0024%. […] The pattern of double immunostaining was analyzed with the aid of a laser confocal microscope (Bio-Rad, MRC-1000, Hercules, Calif., USA).
(§1) Serial-cut coronal tissue sections from the rostral segment of the neostriatum to the level of the anterior commissure (interaural 5.34 mm/bregma 1.54 mm to interaural 3.7 mm/bregma -0.1 mm) were used to define atrophy of the striatum and enlargement of the lateral ventricles. Total areas of the striatum or the lateral ventricles were measured using the software, NIH Image 1.62. Nissl- and GFAP-stained sections were quantified by counting the corresponding types of cells in defined areas of photomicrographs taken using a microscope in phase contrast. […]

For assay [3], the system named is R6/2 mice. The experiment in a line: Number of glia by Nissl staining, R6/2 mice. The note with it: chronic CGS treatment. Type of assay: in vivo. As for the experimental part: (§2) Animals were deeply anesthetized with sodium pentobarbital (100 ug/g), and intracardially perfused with 4% paraformaldehyde in 0.1 M phosphate buffer (PB, pH 7.4). Brains were carefully removed, post-fixed with 4% paraformaldehyde/0. 1 M PB for 2-5 h, and then immersed in 30% glycerol in 0.1 M PB. Tissues were cut at 20 um on a freezing microtome (CM3050, Leica Microsystems Nussloch GmbH, Nussloch, Germany).
Serial-cut coronal tissue sections from the rostral segment of the neostriatum to the level of the anterior commissure (interaural 5.34 mm/bregma 1.54 mm to interaural 3.7 mm/bregma -0.1 mm) were used to define atrophy of the striatum and enlargement of the lateral ventricles. Total areas of the striatum or the lateral ventricles were measured using the software, NIH Image 1.62. Nissl- and GFAP-stained sections were quantified by counting the corresponding types of cells in defined areas of photomicrographs taken using a microscope in phase contrast.
Alternatively, elevated choline content may reflect a change in cell types. […] The number of glia was determined using the Nissl staining technique. […] The number of astrocytes, the most numerous of glial cells, was also assessed by staining the brain sections using an antibody against an astrocytic marker (glial fibrillary acidic protein, GFAP). […]

Assay [4] has as its system R6/2 mice. Kind of assay: Motor coordination assessed by rotarod performance of R6/2 mice. Format: in vivo. As to conditions: CGS treatment. (Falling from the rotarod earlier than controls is read as motor impairment.)
In assay [5] the test system is R6/2 mice. The experiment in a line: Number of activated (GFAP-positive) astrocytes by immunohistochemistry, R6/2 mice. Format: in vivo. As for the experimental part: as §2
Single antigen immunohistochemistry was carried out by the avidin-biotin-peroxidase complex method as previously described (Liu et al. (1998) FEBS Lett. 436:92-98). […] The pattern of double immunostaining was analyzed with the aid of a laser confocal microscope (Bio-Rad, MRC-1000, Hercules, Calif., USA).
as §1

Assay [6] concerns rats. The note with it: low dosage, Popoli et al. (2002); cited from earlier work.
For assay [7], the system named is R6/2 mice. The experiment in a line: Locomotor activity of R6/2 mice. The note with it: ZM241385 7.5 ug/g given with CGS. Format: in vivo.

As for `CCNC(=O)[C@H]1O[C@@H](n2cnc3c(N)nc(NCCc4ccc(CCC(=O)O)cc4)nc32)[C@H](O)[C@@H]1O` [CGS], the “changes in choline/creatine levels” value in assay [1] is “no detectable changes”. Further, the “number of activated astrocytes” value in assay [2] was “not affected”. In assay [3], the “number of glial cells” value was “did not affect”. Further, the “motor coordination assessed by rotarod performance” value in assay [4] was “not affected”. The “enhancement of the number of activated astrocytes” value in assay [5] (R6/2 mice, chronic CGS treatment, in the striatum and in the cortex) amounted to 8 fold.

For the compound `Nc1nc2c(cnn2CCc2ccccc2)c2nc(-c3ccco3)nn12` [SCH58261], the QA-induced excitotoxicity entry in assay [6] is recorded as “reduced QA-induced excitotoxicity”.

For the compound `Nc1nc(NCCc2ccc(O)cc2)nc2nc(-c3ccco3)nn12` [ZM241385], in assay [7], the “ameliorating effect of CGS on locomotor activity, blockade by antagonist” value is listed as “could be blocked”. Also, in assay [5] (R6/2 mice treated with ZM and CGS simultaneously, n=4), the “number of activated astrocytes in the striatum” value was 43±8 /mm^2.
